Experimental data: ChEMBL document CHEMBL5030558, “Optimization and Evaluation of Novel Antifungal Agents for the Treatment of Fungal Infection” (J Med Chem, 2021)
Active and inactive are the calls of the source. No cut-off for these calls is given here.

How the values were obtained:
[1] = test system: HEK293; test: Cytotoxicity against human HEK293 cells upto 12.5 uM incubated for 24 hrs; assay type: cell-based; details: hek293, 24 h
[2] = Cmax in dog at 1 mg/kg, iv; assay type: ADME, organism-based, Canis lupus familiaris; parameters: route intravenous, dose 1 mg/kg; details: in vivo
[3] = test system: Aspergillus fumigatus; test: Synergistic antifungal activity against Aspergillus fumigatus AF293 assessed as FICI in presence of ICZ after 48 hrs by checker board assay; assay type: functional, organism-based
[4] = test system: Cryptococcus neoformans; test: Fungicidal activity against Cryptococcus neoformans H99 at 2 times of MIC after 12 hrs by time-kill kinetics assay; assay type: functional, organism-based
[5] = target: Cytochrome P450 2C9 (Homo sapiens, UniProt P11712); test: Inhibition of CYP2C9 (unknown origin) relative to control; assay type: ADME
Sequence of Cytochrome P450 2C9 (P11712 whole entry): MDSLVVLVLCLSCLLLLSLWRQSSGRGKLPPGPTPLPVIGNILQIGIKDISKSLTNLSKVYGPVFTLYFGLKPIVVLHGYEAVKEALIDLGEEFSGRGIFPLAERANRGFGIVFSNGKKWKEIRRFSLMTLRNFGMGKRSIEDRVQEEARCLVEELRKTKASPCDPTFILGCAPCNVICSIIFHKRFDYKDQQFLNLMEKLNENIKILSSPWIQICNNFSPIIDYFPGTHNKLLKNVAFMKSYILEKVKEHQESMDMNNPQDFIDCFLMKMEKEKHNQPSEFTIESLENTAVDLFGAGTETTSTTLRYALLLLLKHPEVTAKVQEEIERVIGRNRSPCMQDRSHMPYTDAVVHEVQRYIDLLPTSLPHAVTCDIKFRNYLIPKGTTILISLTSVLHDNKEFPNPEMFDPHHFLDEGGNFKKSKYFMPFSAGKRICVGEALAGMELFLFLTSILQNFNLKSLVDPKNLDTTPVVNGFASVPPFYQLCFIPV

[6] = target: T1, CYP1A2 (Homo sapiens, UniProt P05177); test: Inhibition of CYP1A2 (unknown origin) relative to control; assay type: ADME
T1 sequence (P05177 whole entry): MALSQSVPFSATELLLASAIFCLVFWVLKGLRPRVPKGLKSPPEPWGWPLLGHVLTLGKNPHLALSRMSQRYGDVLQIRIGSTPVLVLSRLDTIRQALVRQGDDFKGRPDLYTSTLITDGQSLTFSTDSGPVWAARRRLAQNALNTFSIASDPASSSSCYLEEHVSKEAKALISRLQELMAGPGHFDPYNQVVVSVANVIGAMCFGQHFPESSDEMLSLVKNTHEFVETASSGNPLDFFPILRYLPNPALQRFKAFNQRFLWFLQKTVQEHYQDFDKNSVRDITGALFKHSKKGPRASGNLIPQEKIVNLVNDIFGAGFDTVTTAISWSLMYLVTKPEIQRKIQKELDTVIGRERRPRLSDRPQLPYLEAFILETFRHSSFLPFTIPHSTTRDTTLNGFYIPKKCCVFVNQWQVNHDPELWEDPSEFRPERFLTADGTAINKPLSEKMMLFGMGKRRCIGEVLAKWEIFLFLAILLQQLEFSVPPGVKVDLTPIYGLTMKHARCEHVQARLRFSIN

[7] = test system: Cryptococcus neoformans; test: Antifungal activity against Cryptococcus neoformans H99 assessed as reduction in fungal growth incubated for 72 hrs by CLSI based broth microdilution method; assay type: functional
[8] = test system: Trichophyton mentagrophytes; test: Fungicidal activity against Trichophyton mentagrophytes KCCM60449 at 4 ug/ml by time-kill kinetics assay; assay type: functional, organism-based; details: dose 4.0 µg/ml
[9] = test system: [Candida] auris; test: Synergistic antifungal activity against Candida auris B8841 assessed as FICI in presence of AmB after 48 hrs by checker board assay; assay type: functional, organism-based; details: Candidozyma auris
[10] = test system: Cryptococcus neoformans; test: Induction of morphological changes in Cryptococcus neoformans H99 assessed as reduction in cell wall thickness at 4 to 8 ug/ml incubated for 24 hrs by TEM analysis; assay type: functional, organism-based; details: dose 4-8 µg/ml
[11] = test system: Candida albicans; test: In vivo antifungal activity against Candida albicans 90028 infected in BALB/c mouse assessed as reduction in size of inflammation measured upto 48 hrs post infection; assay type: functional, organism-based; details: time hrs <=48
[12] = test system: [Candida] auris; test: Synergistic antifungal activity against Candida auris B8841 assessed as FICI in presence of ICZ after 48 hrs by checker board assay; assay type: functional, organism-based; details: Candidozyma auris
[13] = target: Cytochrome P450 2C19 (Homo sapiens, UniProt P33261); test: Inhibition of CYP2C19 (unknown origin) relative to control; assay type: ADME
Sequence of Cytochrome P450 2C19 (P33261 whole entry): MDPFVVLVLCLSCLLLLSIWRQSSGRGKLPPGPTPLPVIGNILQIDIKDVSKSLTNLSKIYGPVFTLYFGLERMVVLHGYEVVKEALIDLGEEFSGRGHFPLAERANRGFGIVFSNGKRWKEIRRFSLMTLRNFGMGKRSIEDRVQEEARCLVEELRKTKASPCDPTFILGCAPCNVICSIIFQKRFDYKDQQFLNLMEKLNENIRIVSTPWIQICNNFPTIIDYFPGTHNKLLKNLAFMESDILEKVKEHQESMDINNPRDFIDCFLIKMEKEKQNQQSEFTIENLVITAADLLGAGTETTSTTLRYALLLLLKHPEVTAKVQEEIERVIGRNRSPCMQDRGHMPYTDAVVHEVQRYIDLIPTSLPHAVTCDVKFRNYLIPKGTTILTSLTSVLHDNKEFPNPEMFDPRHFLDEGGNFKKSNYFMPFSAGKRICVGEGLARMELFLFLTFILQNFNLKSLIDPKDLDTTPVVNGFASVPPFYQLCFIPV

[14] = Stability in minipig hepatocytes assessed as parent compound remaining incubated for 60 mins; assay type: ADME, cell-based, Sus scrofa domesticus, Liver; details: pig, read-out: Stability
[15] = test system: Cryptococcus neoformans; test: Effect on cell wall integrity in Cryptococcus neoformans XW252 cotransfected with mCherry-Nop1-Gfp mutant assessed as increase in nuclear translocation of Crz1 at 8 ug/ml after 90 mins by fluorescence microscopic analysis; assay type: functional; details: dose 8.0 µg/ml
[16] = test system: Trichophyton rubrum; test: Ex vivo antifungal activity against Trichophyton rubrum KCCM60450 infected in human nail assessed as reduction in ATP level at 1 % w/w after 24 hrs; assay type: functional; parameters: scale not given: the % may be the effect or the level left
[17] = test system: Trichophyton rubrum; test: Ex vivo antifungal activity against Trichophyton rubrum KCCM60450 infected in human nail assessed as reduction in ATP level at 0.1 % w/w after 24 hrs; assay type: functional; parameters: scale not given: the % may be the effect or the level left
[18] = test system: Candida albicans; test: Synergistic antifungal activity against Candida albicans ATCC SC5314 assessed as FICI in presence of AmB after 48 hrs by checker board assay; assay type: functional, organism-based
[19] = test system: HaCaT; test: Cytotoxicity against human HaCaT cells upto 12.5 uM incubated for 24 hrs; assay type: cell-based
[20] = Effective permeability by PAMPA method; assay type: ADME; details: read-out: Peff
[21] = test system: Candida albicans; test: Induction of drug resistant in Candida albicans ATCC SC5314 assessed as increase in compound IC50 at 8 to 12 times MIC; assay type: functional, organism-based
[22] = test system: Cryptococcus neoformans; test: Additive antifungal activity against Cryptococcus neoformans H99 assessed as FICI in presence of FCZ after 48 hrs by checker board assay; assay type: functional, organism-based
[23] = test system: Cryptococcus neoformans; test: Fungicidal activity against Cryptococcus neoformans H99 at 8 times of MIC after 4 hrs by time-kill kinetics assay; assay type: functional, organism-based
[24] = Stability in rat hepatocytes assessed as parent compound remaining incubated for 60 mins; assay type: ADME, cell-based, Hepatocyte; details: read-out: Stability
[25] = Stability in mouse liver microsomes assessed as parent compound remaining after 30 mins; assay type: ADME, Microsome; details: liver microsomes, read-out: Stability
[26] = Effect on cell wall integrity in Cryptococcus neoformans H99 assessed as activation of Mpk1 by measuring increase in Mpk1 phosphorylation ratio at 8 ug/ml after 30 mins by immunoblot analysis (reference value: 1); assay type: functional; details: dose 8 µg/ml, 0.5 h
[27] = test system: Trichophyton mentagrophytes; test: Fungicidal activity against Trichophyton mentagrophytes KCCM60449 at 4 times after 2 hrs by time-kill kinetics assay; assay type: functional, organism-based
[28] = test system: [Candida] auris; test: Additive antifungal activity against Candida auris B8841 assessed as assessed as FICI in presence of CSP after 48 hrs by checker board assay; assay type: functional, organism-based; details: Candidozyma auris
[29] = test system: Cryptococcus neoformans; test: Additive antifungal activity against Cryptococcus neoformans H99 assessed as FICI in presence of 5-FC after 48 hrs by checker board assay; assay type: functional, organism-based
[30] = test system: Trichophyton rubrum; test: Ex vivo antifungal activity against Trichophyton rubrum KCCM60450 infected in human nail assessed as reduction in ATP level at 5 % w/w after 24 hrs; assay type: functional; parameters: scale not given: the % may be the effect or the level left
[31] = AUC(0 to t) in dog at 10 mg/kg, po; assay type: ADME, organism-based, Canis lupus familiaris; parameters: dose 10 mg/kg; details: in vivo
[32] = test system: Nakaseomyces glabratus; test: Antifungal activity against Candida glabrata BG2 assessed as reduction in fungal growth incubated for 48 hrs by CLSI based broth microdilution method; assay type: functional

## CCCC(N)C(=O)NCCc1ccc(-c2ccc(Cl)c(Cl)c2)cc1.Cl (racemic)
[1]
  Activity: Non-Toxic
[2]
  Cmax: 296 ng/mL
[3]
  Activity: Active
[4]
  Activity: Active
[5]
  inhibition (INH): 77.3%
[6]
  inhibition at 10 µM: 81.1%
[7]
  MIC: 1 µg/mL
[8]
  Activity: Active
[9]
  Activity: Active
[10]
  Activity: Active
[11]
  Activity: Active
[12]
  Activity: inactive
[13]
  inhibition (INH): 86%
[14]
  remaining at 1 h: 49.6%
[15]
  Activity: Active
[16]
  Activity: 24.68%
[17]
  Activity: 73.02%
[18]
  Activity: Active
[19]
  Activity: Non-Toxic
[20]
  Papp: 58.9 ×10⁻⁶ cm/s
[21]
  Activity: inactive
[22]
  Activity: Active
[23]
  Activity: Active
[24]
  remaining at 1 h: 36.2%
[25]
  remaining at 0.5 h: 78.2%
[26]
  Ratio: 2.67
[27]
  Activity: Active
[28]
  Activity: Active
[29]
  Activity: Active
[30]
  Activity: 19.92%
[31]
  AUC(0-t): 30500 ng·h/mL
[32]
  MIC: 4 µg/mL
